Measured values reported in patent publication US8198273B2, “Compounds and methods for kinase modulation, and indications therefor” (Plexxikon Inc., priority 2009, dated 2012).
pIC50: −log10 of the molar value.

Tests used:
[1] = test system: COLO205 colon adenocarcinoma cells (B-Raf V600E); experiment: COLO205 cell growth inhibition (ATPlite); assay type: cell-based; settings: Homo sapiens, COLO 205, 72 h; COLO205, 3 days incubation
In short: (§1)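 ATPlite luminescence, taken as a cell-number measure, gave IC50 values after a 3-day 37° C, 5% CO2 incubation. Compounds were tested as 8-point threefold titrations, highest final concentration 10 μM, added to cells seeded the day before.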

[2] = test system: SKMEL2 melanoma cells (Ras mutation); experiment: SKMEL2 cell growth inhibition (ATPlite); assay type: cell-based; settings: Homo sapiens, SK-MEL-2, 72 h; SKMEL2, 3 days incubation
In short: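 SKMEL2 cells seeded at 2,000 per well overnight, then exposed to an 8-point 1:3 compound titration (top 10 μM final) for 3 days at 37 °C. ATPlite luminescence used as a measure of cell number to derive IC50.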

CYP3A4(BQ) = CYP3A4(BQ) (Homo sapiens, UniProt P08684); experiment: CYP3A4(BQ) inhibition (fluorescent substrate); assay type: in vitro ADME; settings: read-out: Cyp IC50 3A4(BQ)
CYP3A4(BQ), sequence (P08684 whole entry): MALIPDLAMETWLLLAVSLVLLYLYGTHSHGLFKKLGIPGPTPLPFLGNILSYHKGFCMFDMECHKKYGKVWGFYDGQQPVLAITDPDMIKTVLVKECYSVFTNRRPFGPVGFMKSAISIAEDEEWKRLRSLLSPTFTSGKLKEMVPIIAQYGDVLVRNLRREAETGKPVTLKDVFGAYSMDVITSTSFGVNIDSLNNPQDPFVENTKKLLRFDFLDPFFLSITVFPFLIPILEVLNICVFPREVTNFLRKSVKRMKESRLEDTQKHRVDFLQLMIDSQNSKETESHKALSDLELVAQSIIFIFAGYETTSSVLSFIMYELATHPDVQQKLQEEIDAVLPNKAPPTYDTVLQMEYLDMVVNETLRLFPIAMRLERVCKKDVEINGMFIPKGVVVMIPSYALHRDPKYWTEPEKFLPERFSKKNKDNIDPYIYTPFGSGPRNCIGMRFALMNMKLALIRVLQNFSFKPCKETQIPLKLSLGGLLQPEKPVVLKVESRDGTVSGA
In short: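 Compound, from a 100 mM DMSO stock and diluted 1:1 over 10 points in co-factor mix, was incubated at 37° C with enzyme and a known substrate. Decrease in fluorescent product against concentration gave the IC50.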

c-Raf-1 = c-Raf-1 (Homo sapiens, UniProt P04049); experiment: c-Raf-1 biochemical kinase inhibition (AlphaScreen, biotin-MEK1 substrate); settings: 100 μM ATP
c-Raf-1, sequence (P04049 whole entry): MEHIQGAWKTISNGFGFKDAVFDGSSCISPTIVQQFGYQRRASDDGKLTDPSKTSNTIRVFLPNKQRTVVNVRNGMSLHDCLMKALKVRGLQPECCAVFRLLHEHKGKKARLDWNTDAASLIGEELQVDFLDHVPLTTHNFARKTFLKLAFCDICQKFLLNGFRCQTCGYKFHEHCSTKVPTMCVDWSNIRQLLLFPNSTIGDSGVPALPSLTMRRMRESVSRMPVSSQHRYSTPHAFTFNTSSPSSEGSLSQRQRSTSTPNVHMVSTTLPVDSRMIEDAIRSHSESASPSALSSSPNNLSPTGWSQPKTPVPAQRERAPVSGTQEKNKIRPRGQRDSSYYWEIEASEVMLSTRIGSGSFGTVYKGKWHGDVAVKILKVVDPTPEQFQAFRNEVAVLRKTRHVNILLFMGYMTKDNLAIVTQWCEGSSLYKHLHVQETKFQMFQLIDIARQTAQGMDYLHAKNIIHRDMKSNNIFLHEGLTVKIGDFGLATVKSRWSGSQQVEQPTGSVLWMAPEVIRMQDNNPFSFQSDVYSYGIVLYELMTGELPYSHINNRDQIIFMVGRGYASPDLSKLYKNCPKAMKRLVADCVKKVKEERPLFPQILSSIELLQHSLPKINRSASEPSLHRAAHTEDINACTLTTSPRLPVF
In short: (§2)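 Eight-point compound series (made from a 0.1 mM DMSO stock) tested against each Raf enzyme with biotin-MEK1 substrate and 100 μM final ATP.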

[3] = test system: A375 melanoma cells (B-Raf V600E); experiment: A375 cell growth inhibition (ATPlite); assay type: cell-based; settings: Homo sapiens, A-375, 72 h; A375, 3 days incubation
In short: as §1

B-Raf V600E = B-Raf V600E (Homo sapiens, UniProt P15056, V600E); experiment: B-Raf V600E biochemical kinase inhibition (AlphaScreen, biotin-MEK1 substrate); settings: 100 μM ATP
B-Raf V600E, sequence (P15056 whole entry V600E): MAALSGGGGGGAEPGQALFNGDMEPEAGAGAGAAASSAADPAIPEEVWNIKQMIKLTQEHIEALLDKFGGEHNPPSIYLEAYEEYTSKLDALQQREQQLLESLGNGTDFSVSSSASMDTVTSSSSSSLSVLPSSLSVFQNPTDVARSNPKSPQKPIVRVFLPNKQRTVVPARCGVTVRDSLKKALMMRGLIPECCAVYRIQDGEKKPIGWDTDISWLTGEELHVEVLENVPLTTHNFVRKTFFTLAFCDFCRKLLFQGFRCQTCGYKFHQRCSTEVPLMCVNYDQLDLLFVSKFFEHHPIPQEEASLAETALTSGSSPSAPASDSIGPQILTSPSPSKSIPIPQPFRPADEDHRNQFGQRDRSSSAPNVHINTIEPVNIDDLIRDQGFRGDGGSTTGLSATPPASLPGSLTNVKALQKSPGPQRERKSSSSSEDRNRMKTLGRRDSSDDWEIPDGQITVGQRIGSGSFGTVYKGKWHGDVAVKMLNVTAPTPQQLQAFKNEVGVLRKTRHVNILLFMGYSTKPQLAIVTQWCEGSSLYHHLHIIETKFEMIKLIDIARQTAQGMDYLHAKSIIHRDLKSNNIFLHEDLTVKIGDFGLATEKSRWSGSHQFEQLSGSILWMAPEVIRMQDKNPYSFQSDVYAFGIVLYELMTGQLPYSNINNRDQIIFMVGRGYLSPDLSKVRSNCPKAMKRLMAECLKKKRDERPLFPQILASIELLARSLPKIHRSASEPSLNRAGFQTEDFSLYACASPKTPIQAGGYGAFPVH
In short: as §2

| Compound | pIC50 [1] | pIC50 [2] | pIC50 (CYP3A4(BQ)) | pIC50 (c-Raf-1) | pIC50 [3] | pIC50 (B-Raf V600E) |
| --- | --- | --- | --- | --- | --- | --- |
| CCCS(=O)(=O)Nc1ccc(F)c(C(=O)c2c[nH]c3ncc(-c4ccc(NS(C)(=O)=O)cc4)cc23)c1F [P-2165, Propane-1-sulfonic acid {2,4-difluoro-3-[5-(4-methanesulfonylamino-phenyl)-1H-pyrrolo[2,3-b]pyridine-3-carbonyl]-phenyl}-amide] | > 6.00 | > 5.00 | < 5.00 | > 8.00 | > 6.00 | > 8.00 |
| CCCS(=O)(=O)Nc1ccc(F)c(C(=O)c2c[nH]c3ncc(C#CCOC)cc23)c1F [P-2239, Propane-1-sulfonic acid {2,4-difluoro-3-[5-(3-methoxy-prop-1-ynyl)-1H-pyrrolo[2,3-b]pyridine-3-carbonyl]-phenyl}-amide] | > 6.00 | > 4.70 | 5.00 to 5.30 | > 8.00 | > 6.00 | > 8.00 |
| N#Cc1ccnc2[nH]cc(C(=O)c3c(F)ccc(NS(=O)(=O)c4cc(F)ccc4F)c3F)c12 [P-2036, N-[3-(4-Cyano-1H-pyrrolo[2,3-b]pyridine-3-carbonyl)-2,4-difluoro-phenyl]-2,5-difluoro-benzenesulfonamide] | > 6.00 | < 5.00 | < 5.00 | > 8.00 | > 5.30 | > 8.00 |
| O=C(c1c(F)ccc(NS(=O)(=O)c2c(F)cccc2F)c1F)c1c[nH]c2nccc(Cl)c12 [P-2033, N-[3-(4-Chloro-1H-pyrrolo[2,3-b]pyridine-3-carbonyl)-2,4-difluoro-phenyl]-2,6-difluoro-benzenesulfonamide] | > 5.00 | < 5.00 | < 5.00 | > 8.00 | > 5.30 | > 8.00 |
| N#Cc1ccnc2[nH]cc(C(=O)c3c(F)ccc(NS(=O)(=O)c4cccc(F)c4)c3F)c12 [P-2039, N-[3-(4-Cyano-1H-pyrrolo[2,3-b]pyridine-3-carbonyl)-2,4-difluoro-phenyl]-3-fluoro-benzenesulfonamide] | > 5.30 | < 5.00 | < 5.00 | > 8.00 | > 5.30 | > 8.00 |
| COc1ccnc2[nH]cc(C(=O)c3c(F)ccc(NS(=O)(=O)c4cc(F)ccc4F)c3F)c12 [P-2022, N-[2,4-Difluoro-3-(4-methoxy-1H-pyrrolo[2,3-b]pyridine-3-carbonyl)-phenyl]-2,5-difluoro-benzenesulfonamide] | > 5.30 | < 5.00 | – | > 8.00 | > 5.30 | > 8.00 |
| Cc1cnc2[nH]cc(C(=O)c3c(F)ccc(NS(=O)(=O)c4cc(F)ccc4F)c3F)c2c1 [P-2015, N-[2,4-Difluoro-3-(5-methyl-1H-pyrrolo[2,3-b]pyridine-3-carbonyl)-phenyl]-2,5-difluoro-benzenesulfonamide] | > 6.00 | < 5.00 | < 5.00 | > 8.00 | > 6.00 | > 8.00 |
| N#Cc1cnc2[nH]cc(C(=O)c3cccc(NS(=O)(=O)c4ccccc4)c3F)c2c1 [P-2056, N-[3-(5-Cyano-1H-pyrrolo[2,3-b]pyridine-3-carbonyl)-2-fluoro-phenyl]-benzenesulfonamide] | > 5.30 | < 5.00 | < 5.00 | > 8.00 | > 5.30 | > 8.00 |
| COc1cnc2[nH]cc(C(=O)c3c(F)ccc(NS(=O)(=O)c4cc(F)ccc4F)c3F)c2c1 [P-2010, N-[2,4-Difluoro-3-(5-methoxy-1H-pyrrolo[2,3-b]pyridine-3-carbonyl)-phenyl]-2,5-difluoro-benzenesulfonamide] | > 6.00 | < 5.00 | < 5.00 | > 8.00 | > 6.00 | > 8.00 |
| O=C(c1c(F)ccc(NS(=O)(=O)c2cc(F)ccc2F)c1F)c1c[nH]c2ncc(Cl)cc12 [P-2002, N-[3-(5-Chloro-1H-pyrrolo[2,3-b]pyridine-3-carbonyl)-2,4-difluoro-phenyl]-2,5-difluoro-benzenesulfonamide] | > 6.00 | < 5.00 | < 5.00 | > 8.00 | > 6.00 | > 8.00 |
| N#Cc1ccnc2[nH]cc(C(=O)c3c(F)ccc(NS(=O)(=O)c4c(F)cccc4F)c3F)c12 [P-2037, N-[3-(4-Cyano-1H-pyrrolo[2,3-b]pyridine-3-carbonyl)-2,4-difluoro-phenyl]-2,6-difluoro-benzenesulfonamide] | – | < 5.00 | < 5.00 | > 8.00 | > 5.30 | > 8.00 |
| CCCS(=O)(=O)Nc1ccc(F)c(C(=O)c2c[nH]c3ncc(-c4ccc(S(=O)(=O)NC5CC5)cc4)cc23)c1F [P-2168, N-Cyclopropyl-4-{3-[2,6-difluoro-3-(propane-1-sulfonylamino)-benzoyl]-1H-pyrrolo[2,3-b]pyridin-5-yl}-benzenesulfonamide] | > 7.00 | > 5.30 | – | > 8.00 | > 6.00 | > 8.00 |
| N#Cc1ccnc2[nH]cc(C(=O)c3c(F)ccc(NS(=O)(=O)c4ccccc4F)c3F)c12 [P-2020, N-[3-(4-Cyano-1H-pyrrolo[2,3-b]pyridine-3-carbonyl)-2,4-difluoro-phenyl]-2-fluoro-benzenesulfonamide] | – | < 5.00 | < 5.00 | > 8.00 | > 5.30 | > 8.00 |

Further lines, results first:

| pIC50 [1] | pIC50 [2] | pIC50 (CYP3A4(BQ)) | pIC50 (c-Raf-1) | pIC50 [3] | pIC50 (B-Raf V600E) | Compound |
| --- | --- | --- | --- | --- | --- | --- |
| > 6.00 | > 5.00 | > 5.30 | > 8.00 | > 6.00 | > 8.00 | CCCS(=O)(=O)Nc1ccc(F)c(C(=O)c2c[nH]c3ncc(-c4cnc(SC)nc4)cc23)c1F [P-2189, Propane-1-sulfonic acid {2,4-difluoro-3-[5-(2-methylsulfanyl-pyrimidin-5-yl)-1H-pyrrolo[2,3-b]pyridine-3-carbonyl]-phenyl}-amide] |
| > 7.00 | > 5.30 | 5.00 to 5.30 | > 8.00 | > 6.00 | > 8.00 | CCCS(=O)(=O)Nc1ccc(F)c(C(=O)c2c[nH]c3ncc(-c4ccc(S(=O)(=O)NC)cc4)cc23)c1F [P-2167, 4-{3-[2,6-Difluoro-3-(propane-1-sulfonylamino)-benzoyl]-1H-pyrrolo[2,3-b]pyridin-5-yl}-N-methyl-benzenesulfonamide] |
| > 6.00 | > 4.70 | < 5.00 | > 8.00 | > 6.00 | > 8.00 | CCCS(=O)(=O)Nc1ccc(F)c(C(=O)c2c[nH]c3ncc(-c4ccc(F)nc4)cc23)c1F [P-2155, Propane-1-sulfonic acid {2,4-difluoro-3-[5-(6-fluoro-pyridin-3-yl)-1H-pyrrolo[2,3-b]pyridine-3-carbonyl]-phenyl}-amide] |
| > 6.00 | < 5.00 | < 5.00 | > 8.00 | > 6.00 | > 8.00 | CCCS(=O)(=O)Nc1ccc(F)c(C(=O)c2c[nH]c3ncc(-c4cnc(C)nc4)cc23)c1F [P-2211, Propane-1-sulfonic acid {2,4-difluoro-3-[5-(2-methyl-pyrimidin-5-yl)-1H-pyrrolo[2,3-b]pyridine-3-carbonyl]-phenyl}-amide] |
| > 7.00 | < 5.00 | < 5.00 | > 8.00 | > 7.00 | > 8.00 | CCCS(=O)(=O)Nc1ccc(F)c(C(=O)c2c[nH]c3ncc(-c4ccc(S(=O)(=O)N(C)C)cc4)cc23)c1F [P-2185, 4-{3-[2,6-Difluoro-3-(propane-1-sulfonylamino)-benzoyl]-1H-pyrrolo[2,3-b]pyridin-5-yl}-N,N-dimethyl-benzenesulfonamide] |
| > 7.00 | > 5.30 | > 5.30 | > 8.00 | > 7.00 | > 8.00 | CCCS(=O)(=O)Nc1ccc(F)c(C(=O)c2c[nH]c3ncc(-c4ccc(OCCCN(C)C)nc4)cc23)c1F [P-2178, Propane-1-sulfonic acid (3-{5-[6-(3-dimethylamino-propoxy)-pyridin-3-yl]-1H-pyrrolo[2,3-b]pyridine-3-carbonyl}-2,4-difluoro-phenyl)-amide] |
| > 7.00 | < 5.00 | < 5.00 | > 7.00 | > 7.00 | > 7.00 | CCCS(=O)(=O)Nc1ccc(F)c(C(=O)c2c[nH]c3ncc(-c4ccc(S(=O)(=O)CC)cc4)cc23)c1F [P-2218, Propane-1-sulfonic acid {3-[5-(4-ethanesulfonyl-phenyl)-1H-pyrrolo[2,3-b]pyridine-3-carbonyl]-2,4-difluoro-phenyl}-amide] |
| > 7.00 | < 5.00 | – | > 7.00 | > 7.00 | > 7.00 | CCCS(=O)(=O)Nc1ccc(F)c(C(=O)c2c[nH]c3ncc(-c4cnc(N5CCCC5)nc4)cc23)c1F [P-2219, Propane-1-sulfonic acid {2,4-difluoro-3-[5-(2-pyrrolidin-1-yl-pyrimidin-5-yl)-1H-pyrrolo[2,3-b]pyridine-3-carbonyl]-phenyl}-amide] |
